Source: US7745422B2, “Bisphosphonate compounds and methods for bone resorption diseases, cancer, bone pain, immune disorders, and infectious diseases” (The Board of Trustees of the University of Illinois, priority 2004, dated 2010)
Converted amounts (≈) assume the structure as drawn. Like-named read-outs stand apart in the source and are kept apart here.

Legend:
[1] = tested on: Dictyostelium discoideum; experiment: D. discoideum cell growth inhibition; format: cell-based
From the text: (§1) We then investigated the activity of each compound in inhibiting the FPPS from L. major, in Dictyostelium discoideum growth inhibition and in γδ T cell activation. We used the FPPS from L. major since this enzyme is the putative bisphosphonate target in several trypanosomatid species.

[2] = tested on: Vγ2Vδ2 T cells; experiment: gammadelta T cell stimulation (TNF-α release assay); format: cell-based, human
From the text: as §1

[3] = target: T1, human FPPS (Homo sapiens, UniProt P14324); experiment: human FPPS assay; format: biochemical
T1 sequence (P14324 1-419): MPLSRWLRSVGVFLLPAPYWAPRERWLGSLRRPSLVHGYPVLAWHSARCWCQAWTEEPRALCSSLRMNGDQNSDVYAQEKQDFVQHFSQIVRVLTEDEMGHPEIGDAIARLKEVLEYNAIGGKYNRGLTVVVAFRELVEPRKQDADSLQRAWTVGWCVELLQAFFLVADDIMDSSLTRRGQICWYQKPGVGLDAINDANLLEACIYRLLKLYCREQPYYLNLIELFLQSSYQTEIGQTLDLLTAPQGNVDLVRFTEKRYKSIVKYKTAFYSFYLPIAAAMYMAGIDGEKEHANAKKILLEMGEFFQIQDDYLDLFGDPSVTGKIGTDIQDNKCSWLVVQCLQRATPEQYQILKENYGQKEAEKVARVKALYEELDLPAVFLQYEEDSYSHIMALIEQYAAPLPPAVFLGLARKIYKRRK

[4] = tested on: fetal mouse metatarsals; experiment: bone resorption assay: 45Ca2+ release from 17-day old fetal mouse metatarsals; format: cell-based; conditions: Mus musculus; Table 4
Method: Compounds are tested in a bone resorption assay: ^45Ca^2+ release from 17-day old fetal mouse metatarsals (ref. 37).

[5] = tested on: human nasopharyngeal carcinoma cells; experiment: Toxicity testing in human nasopharyngeal carcinoma cells; format: cell-based; conditions: read-out: (5) Toxicity IC50
Method: We have obtained data for selected bisphosphonate compounds in the contexts of D. discoideum assays, human FPPS assays, gammadelta T cell stimulation assays, and bone resorption assays. […] Some toxicity testing was also performed. See Table 4 (in some instances, the same data depicted elsewhere herein, e.g., in Table 1, may be presented again to facilitate comparative analysis).

[6] = tested on: T. cruzi; experiment: Activity against T. cruzi; format: cell-based; conditions: Trypanosoma cruzi; Table 5; read-out: (8) T. cruzi IC50
From the text: (§2) We have obtained data for selected bisphosphonate compounds against parasites including Trypanosoma brucei, Trypanosoma cruzi, and Leishmania major. […] See Table 5 (in some instances, the same data depicted elsewhere herein, e.g., in Table 1, may be presented again to facilitate comparative analysis).

[7] = target: T. brucei soluble vacuolar pyrophosphatase; experiment: T. brucei soluble vacuolar pyrophosphatase inhibition; format: biochemical, Trypanosoma brucei; conditions: Table 5; read-out: (9) T. brucei soluble vacuolar pyrophosphatase IC50
From the text: as §2

[8] = target: T2, L. major FPPS (Leishmania major, UniProt Q4QBL1); experiment: biochemical; format: biochemical
T2 sequence (Q4QBL1 1-362): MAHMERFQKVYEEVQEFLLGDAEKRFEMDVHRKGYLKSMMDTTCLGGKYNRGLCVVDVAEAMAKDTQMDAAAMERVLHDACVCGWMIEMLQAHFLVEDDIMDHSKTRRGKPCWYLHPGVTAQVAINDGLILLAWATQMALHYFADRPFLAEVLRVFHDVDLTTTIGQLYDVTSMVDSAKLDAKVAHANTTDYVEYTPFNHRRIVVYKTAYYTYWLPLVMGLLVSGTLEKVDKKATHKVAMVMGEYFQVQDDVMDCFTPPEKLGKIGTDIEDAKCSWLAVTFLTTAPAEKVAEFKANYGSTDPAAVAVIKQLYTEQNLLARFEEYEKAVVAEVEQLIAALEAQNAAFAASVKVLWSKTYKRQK
From the text: as §1

[9] = tested on: Vγ2Vδ2 T cells; conditions: TNF-α release, footnote b: data from Ref. 30; read-out: gammadelta T cell stimulation, EC50; cited from earlier work
[10] = target: T2, L. major FPPS; conditions: read-out: L. major FPPS Ki; Table 1, footnote a: data from Ref. 17; cited from earlier work
[11] = tested on: cutaneous leishmaniasis; experiment: Treatment of cutaneous leishmaniasis in mice; format: in vivo
From the text: The average lesion size in treated mice was reduced during a time period of several weeks and in a dose-dependent manner relative to […] mice.

[12] = tested on: parasite cell growth; experiment: Parasite cell growth inhibition; format: cell-based
From the text: We explored the hypothesis of whether analogs of pyrophosphate could block pyrophosphatase enzymes and/or inhibit cellular growth or function. We used certain bisphosphonate compounds that are currently applied in bone resorption therapy. The compounds included pamidronate (Aredia®, Novartis), alendronate (Fosamax®, Merck), and risedronate (Actonel®, Procter & Gamble). […] Without wishing to be bound by a particular theory, the compounds appeared to act as inhibitors of isoprenoid biosynthesis (FIG. 6).

[13] = tested on: pyrophosphatase enzymes; experiment: Pyrophosphatase inhibition; format: biochemical
From the text: We explored the hypothesis of whether analogs of pyrophosphate could block pyrophosphatase enzymes and/or inhibit cellular growth or function. We used certain bisphosphonate compounds that are currently applied in bone resorption therapy.

[14] = Dictyostelium discoideum, read-out: (1) D. discoideum IC50
[15] = Dictyostelium discoideum, read-out: D. discoideum IC50
[16] = Homo sapiens, T-cell, read-out: (3) gammadelta T cell stimulation EC50
[17] = Homo sapiens, T-cell, read-out: gammadelta T cell stimulation EC50
[18] = Homo sapiens, T-cell, read-out: gammadelta T cell stimulation, EC50
[19] = Table 1 and text, read-out: L. major FPPS Ki
[20] = Table 5, read-out: (7) L. major FPPS Ki
[21] = Table 4, read-out: (1) D. discoideum IC50
[22] = cell growth inhibition, Table 1 and text, read-out: D. discoideum IC50
[23] = TNF-α release, Table 1 and text, read-out: gammadelta T cell stimulation, EC50
[24] = Table 4, read-out: (3) gammadelta T cell stimulation EC50

Compound: O=P([O-])(O)C(O)(C[n+]1ccccc1)P(=O)(O)O (stereo not shown) [Compound 278]
- IC50 [1, 14]: 2.6 µM
- IC50 [1, 15]: 2.1 µM
- EC50 [2, 16]: 5.1 µM
- EC50 [2, 17]: 4.8 µM
- EC50 [2, 18]: 5.1 µM
- IC50 [3]: 1.6 µM
- IC50 [4]: 0.67 µM
- IC50 [5]: 300 µg/mL (≈ 1060 µM)
- IC50 [6]: 3.07 µg/mL (≈ 10.8 µM)

Compound: O=P([O-])(O)C(O)(C[n+]1cccc(-c2ccccc2)c1)P(=O)(O)O (stereo not shown) [Compound 300]
- IC50 [1, 14]: 2.8 µM
- IC50 [1, 15]: 2.8 µM
- EC50 [2, 16]: 3.7 µM
- EC50 [2, 17]: 2.1 µM
- EC50 [2, 18]: 3.7 µM
- IC50 [3]: 1.7 µM
- IC50 [4]: 0.41 µM
- IC50 [5]: 5.4 µg/mL (≈ 15 µM)
- IC50 [7]: 35 µM

Compound: O=P([O-])(O)C(O)(C[n+]1cccc(Cc2ccccc2)c1)P(=O)(O)O (stereo not shown) [Compound 335]
- Ki [8, 19]: 0.16 µM
- Ki [8, 20]: 0.16 µM
- IC50 [1, 21]: 11 µM
- IC50 [1, 22]: 8.5 µM
- activity in gammadelta T cell stimulation ([2]; TNF-α release): poor activity
- EC50 [2, 23]: 430 µM
- EC50 ([2]; Table 3, additional testing, read-out: gammadelta T cell stimulation EC50): 63.4 µM
- EC50 [2, 24]: 430 µM
- IC50 [7]: 70 µM

Compound: Cc1cccc(Cc2ccc[n+](CC(O)(P(=O)([O-])O)P(=O)(O)O)c2)c1 (stereo not shown) [Compound 344]
- Ki [8, 19]: 0.07 µM
- Ki [8, 20]: 0.07 µM
- IC50 [1, 21]: 8.5 µM
- IC50 [1, 22]: 9.9 µM
- activity in gammadelta T cell stimulation ([2]; TNF-α release): poor activity
- EC50 [2, 23]: 140 µM
- EC50 [2, 24]: 140 µM
- IC50 ([3]; Table 4, read-out: (2) human FPPS IC50): 17 µM
- IC50 [7]: 78 µM

Compound: O=P(O)(O)C(NC1CCCCCC1)P(=O)(O)O [incadronate]
- IC50 [1, 22]: 1.6 µM
- EC50 [9]: 15 µM
- Ki [10]: 0.023 µM

Compound: NCCC(O)(P(=O)(O)O)P(=O)(O)O [pamidronate]
- treating cutaneous leishmaniasis ([11]; mice): effective
- average lesion size ([11]; treated mice, several weeks, dose-dependent): reduced
- parasite cell growth inhibition [12]: did inhibit
- inhibition of pyrophosphatases [13]: did not appear necessarily to inhibit
